Measurements taken from patent US9777003B2, “Tricyclic heterocycles as bet protein inhibitors” (Incyte Corporation, priority 2013, dated 2017).
Structures can show the parent of a compound that is named as a salt.

Legend:
BRD4-BD1 = BRD4-BD1 (Homo sapiens (Human), UniProt O60885); assay: BRD4 AlphaScreen assay, BRD4-BD1; assay type: binding; conditions: biotin-labeled tetra-acetylated histone H4 peptide, 75 min, room temperature, read-out: BRD4 BD-1 enzyme IC50
Outline: (§1)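 AlphaScreen displacement of 50 nM biotin-tetra-acetylated H4 peptide from 3.8 nM BRD4-BD1 (1.25% DMSO) or 20 nM BRD4-BD2 (0.83% DMSO) in HEPES pH 7.4 buffer, 75 min RT. Streptavidin donor/GSH acceptor beads added, 75 min dark; IC50 from log-concentration curve fit.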

BRD4-BD2 = BRD4-BD2 (Homo sapiens (Human), UniProt O60885); assay: BRD4 AlphaScreen assay, BRD4-BD2; assay type: binding; conditions: biotin-labeled tetra-acetylated histone H4 peptide, 75 min, room temperature, read-out: BRD4 BD-2 enzyme IC50
Outline: as §1

SMILES | IC50 (BRD4-BD1) | IC50 (BRD4-BD2)
Cc1cc2c(cc(NC3CCN(S(C)(=O)=O)CC3)c3nnc(C)n32)n1Cc1ccccc1 [Example 211, 6-Benzyl-1,7-dimethyl-N-[1-(methylsulfonyl)piperidin-4-yl]-6H-pyrrolo[2,3-e][1,2,4]triazolo[4,3-a]pyridin-4-amine] | ≤ 100 nM | ≤ 100 nM
CCN1CCC(Nc2cc3c(cc(C)n3Cc3ccccc3)n3c(C)nnc23)CC1 [Example 212, 6-Benzyl-N-(1-ethylpiperidin-4-yl)-1,7-dimethyl-6H-pyrrolo[2,3-e][1,2,4]triazolo[4,3-a]pyridin-4-amine] | ≤ 100 nM | ≤ 100 nM
Cc1cc2c(cc(NC3CCN(C(=O)OC(C)(C)C)CC3)c3nnc(C)n32)n1Cc1ccccc1 [Example 214, tert-Butyl 4-[(6-benzyl-1,7-dimethyl-6H-pyrrolo[2,3-e][1,2,4]triazolo[4,3-a]pyridin-4-yl)amino]piperidine-1-carboxylate] | 100 to 1000 nM | ≤ 100 nM
Cc1cc2c(cc(N[C@H]3CC[C@H](N)CC3)c3nnc(C)n32)n1Cc1ccccc1 [Example 217, trans-N-(6-Benzyl-1,7-dimethyl-6H-pyrrolo[2,3-e][1,2,4]triazolo[4,3-a]pyridin-4-yl)cyclohexane-1,4-diamine] | ≤ 100 nM | ≤ 100 nM
Cc1cc2c(cc(N[C@H]3CC[C@@H](N)CC3)c3nnc(C)n32)n1Cc1ccccc1 [Example 218, cis-N-(6-Benzyl-1,7-dimethyl-6H-pyrrolo[2,3-e][1,2,4]triazolo[4,3-a]pyridin-4-yl)cyclohexane-1,4-diamine] | ≤ 100 nM | ≤ 100 nM
CN[C@H]1CC[C@H](Nc2cc3c(cc(C)n3Cc3ccccc3)n3c(C)nnc23)CC1 [Example 219, trans-N-(6-Benzyl-1,7-dimethyl-6H-pyrrolo[2,3-e][1,2,4]triazolo[4,3-a]pyridin-4-yl)-N′-methylcyclohexane-1,4-diamine] | ≤ 100 nM | ≤ 100 nM
CN[C@H]1CC[C@@H](Nc2cc3c(cc(C)n3Cc3ccccc3)n3c(C)nnc23)CC1 [Example 221, cis-N-(6-Benzyl-1,7-dimethyl-6H-pyrrolo[2,3-e][1,2,4]triazolo[4,3-a]pyridin-4-yl)-N′-methylcyclohexane-1,4-diamine] | ≤ 100 nM | ≤ 100 nM
Cc1nnc2ccc3c(cc(C#N)n3Cc3ccccc3)n12 [Example 227, 6-Benzyl-1-methyl-6H-pyrrolo[2,3-e][1,2,4]triazolo[4,3-a]pyridine-7-carbonitrile Trifluoroacetate Salt] | ≤ 100 nM | ≤ 100 nM
Cc1cc2c(cc(NCC3CC3)c3nnc(C)n32)n1Cc1ccccc1 [Example 228, 6-Benzyl-N-(cyclopropylmethyl)-1,7-dimethyl-6H-pyrrolo[2,3-e][1,2,4]triazolo[4,3-a]pyridin-4-amine] | ≤ 100 nM | ≤ 100 nM
CNC(=O)Nc1cc2c(cc(C)n2Cc2ccccc2)n2c(C)nnc12 [Example 229, 1-(6-Benzyl-1,7-dimethyl-6H-pyrrolo[2,3-e][1,2,4]triazolo[4,3-a]pyridin-4-yl)-3-methylurea] | ≤ 100 nM | ≤ 100 nM
Cc1cc2c(cc(NC(N)=O)c3nnc(C)n32)n1Cc1cccc(C(F)(F)F)c1 [Example 230, 1-(1,7-Dimethyl-6-(3-(trifluoromethyl)benzyl)-6H-pyrrolo[2,3-e][1,2,4]triazolo[4,3-a]pyridin-4-yl)urea] | ≤ 100 nM | ≤ 100 nM
Cc1cc2c(cc(NC(N)=O)c3nnc(C)n32)n1Cc1cccc(Cl)c1 [Example 231, 1-(6-(3-Chlorobenzyl)-1,7-dimethyl-6H-pyrrolo[2,3-e][1,2,4]triazolo[4,3-a]pyridin-4-yl)urea] | ≤ 100 nM | ≤ 100 nM
Cc1cc2c(cc(NC3CCCCC3)c3nnc(C)n32)n1Cc1ccccc1 [Example 232, 6-Benzyl-N-cyclohexyl-1,7-dimethyl-6H-pyrrolo[2,3-e][1,2,4]triazolo[4,3-a]pyridin-4-amine] | 100 to 1000 nM | 100 to 1000 nM
Cc1cc2c(cc(NC(N)=O)c3nnc(C)n32)n1Cc1cc(F)cc(F)c1 [Example 233, 1-(6-(3,5-Difluorobenzyl)-1,7-dimethyl-6H-pyrrolo[2,3-e][1,2,4]triazolo[4,3-a]pyridin-4-yl)urea] | ≤ 100 nM | ≤ 100 nM
Cc1cc2c(cc(NC(N)=O)c3nnc(C)n32)n1Cc1ccc(F)c(F)c1 [Example 234, 1-(6-(3,4-Difluorobenzyl)-1,7-dimethyl-6H-pyrrolo[2,3-e][1,2,4]triazolo[4,3-a]pyridin-4-yl)urea] | ≤ 100 nM | ≤ 100 nM
Cc1cc2c(cc(NC(N)=O)c3nnc(C)n32)n1Cc1cccc(F)c1 [Example 235, 1-(6-(3-Fluorobenzyl)-1,7-dimethyl-6H-pyrrolo[2,3-e][1,2,4]triazolo[4,3-a]pyridin-4-yl)urea] | ≤ 100 nM | ≤ 100 nM
Cc1cc2c(cc(NC(N)=O)c3nnc(C)n32)n1Cc1ccc(F)cc1F [Example 236, 1-(6-(2,4-Difluorobenzyl)-1,7-dimethyl-6H-pyrrolo[2,3-e][1,2,4]triazolo[4,3-a]pyridin-4-yl)urea] | ≤ 100 nM | ≤ 100 nM

SMILES | IC50 (BRD4-BD1) | IC50 (BRD4-BD2)
Cc1cc2c(cc(NC(N)=O)c3nnc(C)n32)n1Cc1cccc(F)c1F [Example 237, 1-(6-(2,3-Difluorobenzyl)-1,7-dimethyl-6H-pyrrolo[2,3-e][1,2,4]triazolo[4,3-a]pyridin-4-yl)urea] | ≤ 100 nM | ≤ 100 nM
Cc1cc2c(cc(NC(N)=O)c3nnc(C)n32)n1Cc1ccccc1F [Example 238, 1-(6-(2-Fluorobenzyl)-1,7-dimethyl-6H-pyrrolo[2,3-e][1,2,4]triazolo[4,3-a]pyridin-4-yl)urea] | ≤ 100 nM | ≤ 100 nM
Cc1cc2c(cc(NC(N)=O)c3nnc(C)n32)n1Cc1ccc(F)cc1 [Example 239, 1-(6-(4-Fluorobenzyl)-1,7-dimethyl-6H-pyrrolo[2,3-e][1,2,4]triazolo[4,3-a]pyridin-4-yl)urea] | ≤ 100 nM | ≤ 100 nM
Cc1cc2c(cc(Nc3ccccn3)c3nnc(C)n32)n1Cc1ccccc1 [Example 240, 6-benzyl-1,7-Dimethyl-N-(pyridin-2-yl)-6H-pyrrolo[2,3-e][1,2,4]triazolo[4,3-a]pyridin-4-amine] | ≤ 100 nM | ≤ 100 nM
Cc1cc2c(cc(NCC3CCC3)c3nnc(C)n32)n1Cc1ccccc1 [Example 241, 6-Benzyl-N-(cyclobutylmethyl)-1,7-dimethyl-6H-pyrrolo[2,3-e][1,2,4]triazolo[4,3-a]pyridin-4-amine] | 100 to 1000 nM | ≤ 100 nM
Cc1cc2c(cc(NCC3CCN(C(=O)OC(C)(C)C)CC3)c3nnc(C)n32)n1Cc1ccccc1 [Example 242, tert-Butyl 4-((6-benzyl-1,7-dimethyl-6H-pyrrolo[2,3-e][1,2,4]triazolo[4,3-a]pyridin-4-ylamino)methyl)piperidine-1-carboxylate] | 100 to 1000 nM | ≤ 100 nM
Cc1cc2c(cc(NCC3CN(C(=O)OC(C)(C)C)C3)c3nnc(C)n32)n1Cc1ccccc1 [Example 243, tert-Butyl 3-((6-benzyl-1,7-dimethyl-6H-pyrrolo[2,3-e][1,2,4]triazolo[4,3-a]pyridin-4-ylamino)methyl)azetidine-1-carboxylate] | 100 to 1000 nM | ≤ 100 nM
Cc1cc2c(cc(NC3CN(C(=O)OC(C)(C)C)C3)c3nnc(C)n32)n1Cc1ccccc1 [Example 244, tert-Butyl 3-(6-benzyl-1,7-dimethyl-6H-pyrrolo[2,3-e][1,2,4]triazolo[4,3-a]pyridin-4-ylamino)azetidine-1-carboxylate] | ≤ 100 nM | ≤ 100 nM
Cc1cc2c(cc(NCCCN(C)C)c3nnc(C)n32)n1Cc1ccccc1 [Example 245, N1-(6-Benzyl-1,7-dimethyl-6H-pyrrolo[2,3-e][1,2,4]triazolo[4,3-a]pyridin-4-yl)-N3,N3-dimethylpropane-1,3-diamine] | ≤ 100 nM | ≤ 100 nM
Cc1cc2c(cc(NCCN(C)C)c3nnc(C)n32)n1Cc1ccccc1 [Example 246, N1-(6-Benzyl-1,7-dimethyl-6H-pyrrolo[2,3-e][1,2,4]triazolo[4,3-a]pyridin-4-yl)-N2,N2-dimethylethane-1,2-diamine] | ≤ 100 nM | ≤ 100 nM
Cc1cc2c(cc(N[C@H]3C[C@H](O)C3)c3nnc(C)n32)n1Cc1ccccc1 [Example 247, trans-3-(6-Benzyl-1,7-dimethyl-6H-pyrrolo[2,3-e][1,2,4]triazolo[4,3-a]pyridin-4-ylamino)cyclobutanol] | ≤ 100 nM | ≤ 100 nM
Cc1cc2c(cc(NC(=O)OC(C)(C)C)c3nnc(C)n32)n1Cc1ccccc1 [Example 248, tert-Butyl 6-benzy1-1,7-dimethyl-6H-pyrrolo[2,3-e][1,2,4]triazolo[4,3-a]pyridin-4-ylcarbamate] | 100 to 1000 nM | ≤ 100 nM
CCNC(=O)Nc1cc2c(cc(C)n2Cc2ccccc2)n2c(C)nnc12 [Example 249, 1-(6-Benzyl-1,7-dimethyl-6H-pyrrolo[2,3-e][1,2,4]triazolo[4,3-a]pyridin-4-yl)-3-ethylurea] | ≤ 100 nM | ≤ 100 nM
Cc1cc2c(cc(NC(=O)NC(C)C)c3nnc(C)n32)n1Cc1ccccc1 [Example 250, 1-(6-Benzyl-1,7-dimethyl-6H-pyrrolo[2,3-e][1,2,4]triazolo[4,3-a]pyridin-4-yl)-3-isopropylurea] | ≤ 100 nM | ≤ 100 nM
Cc1cc2c(cc(NC(=O)N(C)C)c3nnc(C)n32)n1Cc1ccccc1 [Example 251, 3-(6-Benzyl-1,7-dimethyl-6H-pyrrolo[2,3-e][1,2,4]triazolo[4,3-a]pyridin-4-yl)-1,1-dimethylurea] | 100 to 1000 nM | ≤ 100 nM
Cc1cc2c(cc(NC(N)=O)c3nnc(C)n32)n1Cc1ccccc1 [Example 252, 1-(6-Benzyl-1,7-dimethyl-6H-pyrrolo[2,3-e][1,24]triazolo[4,3-a]pyridin-4-yl)urea] | ≤ 100 nM | ≤ 100 nM
